Source: patent US6492342B1, “Hygromycin A prodrugs” (Pfizer Inc., priority 1999, dated 2002)

Test system: panel of bacterial strains
Test: Microtiter tray MIC assay against a panel of bacterial strains (NCCLS)
Type: cell-based
Conditions: microtiter trays, compounds dissolved in DMSO
Text: The assay, described below, employs conventional methodology and interpretation criteria and is designed to provide direction for chemical modifications that may lead to compounds with antibacterial activity against susceptible and drug-resistant organisms including, but not limited to, beta-lactam, macrolide and vancomycin resistance. In the assay, a panel of bacterial strains is assembled to include a variety of target pathogenic species, including representatives of antibiotic resistant bacteria. Use of this panel enables the chemical structure/activity relationship to be determined with respect to potency and spectrum of activity. The assay is performed in microtiter trays and interpreted according to Performance Standards for Antimicrobial Disk SusceDtibility Tests—Sixth Edition; Approved Standard, published by The National Committee for Clinical Laboratory Standards (NCCLS) guidelines; the minimum inhibitory concentration (MIC) is used to compare strains. Compounds are initially dissolved in dimethylsulfoxide (DMSO) as stock solutions.

## CC(=Cc1ccc(OC2OC(/C(C)=N/OCc3cccc(Cl)c3)C(O)C2O)c(OC(=O)C(C)(C)C)c1)C(=O)NC1C(O)C(O)C2OCOC2C1O (stereo not shown) [Example 1]
  antibacterial activity in the microtiter assay (MIC): exhibits antibacterial activity
